Tests used:
[1] = stability study of Elsamitrucin F2 RTU, impurities profile by HPLC;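 further: formulation kept in nitrogen-flushed sealed amber vials, sampled at time points, diluted to roughly 0.1 mg/mL and analysed by gradient HPLC on a C18 column, water/acetonitrile with trifluoroacetic acid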
Description: Design of the Stability Study: 250 mL of Elsamitrucin Tosylate stock solution (10 mg/mL free base, 4.77% Mannitol, pH 4.0) was prepared. 80×5 mL amber serum vials were filled with 2.5 mL of the Elsamitrucin Tosylate stock solution, flushed with nitrogen and sealed with stoppers. These sealed vials, in both upright and inverted positions, were stored in the following temperature cabinets at 4, 25, 40 and 60° C., respectively. […] Samples were removed for pH measurement and high performance liquid chromatography (HPLC) analysis at the various time points. At 60° C., measurements were made at 0, 2, 7, 10, 14 days. At 40° C., measurements were made at 0, 7, 14, 28, 38, 64, 77, 84 days. At 25° C., measurements were made at 0, 7, 14, 28, 64, 84 days. At 4° C., measures were made at 0, 7, 14, 28, 64, 84 days.
For the present stability study HPLC weight/weight assay of elsamitrucin was done in addition to the determination of related impurities. The reagents for the HPLC assay are as follows—HPLC grade acetonitrile and trifluoroacetic acid (Lot #44093418) were obtained from EMD Science. Water was purified with Millipore Milli-Q system. The apparatus was the chromatographic system which consisted of a Waters Alliance 2695 separation module equipped with a column heater, an autosampler and a Waters 2996 photodiode array detector. Data acquisition was controlled by Waters Empower Pro 2 software. As the column a Cadenza Cd-C18, 3 μm, 4.6×150 mm (Silverstone Sciences) was used. Detection was made at 267 nm. Mobile phase A contained water with 0.1% trifluoroacetic acid. 2 mL of trifluoroacetic acid was pipetted to 2000 mL of water. Mobile phase B contained acetonitrile with 0.08% trifluoroacetic acid. 1 mL of trifluoroacetic acid was pipetted to 1250 mL of acetonitrile. 1 L of water was mixed thoroughly with 1 L of acetonitrile.
HPLC analysis was run with a gradient at flow rate equal to 1.0 mL/min. The oven temperature was set at 40° C. The autosampler temperature was at 25° C. The injection volume was 10 μL. Sample Diluent—Acetonitrile/water (50/50, v/v): 1 L of water was mixed thoroughly with 1 L of acetonitrile. Sample Blank—Acetonitrile/water (50/50, v/v): Sample Diluent was used as Sample Blank. Standard Solution—˜0.1 mg/mL of Elsamitrucin: 26.32 mg of Elsamitrucin Tosylate was accurately weighed and dissolved in a 200 mL of Sample Diluent in a 200 mL volumetric flask. Sample Solution Preparation (one vial per time point): 2 mL of Elsamitrucin RTU solution was pipetted to a 20 mL volumetric flask and diluted with 18 mL of Sample Diluent. 2 mL of the diluted solution was further diluted with 18 mL of Sample Diluent in a 20 mL volumetric flask to give the final analytical sample (with concentration at about 0.1 mg/mL). The retention time for Elsamitrucin was about 11.7 minutes.

[2] = patients with refractory/relapsed non-Hodgkin's lymphoma; cited from earlier work
[3] = test system: ER+ tumors; conditions: clinical specimens; cited from earlier work
[4] = test system: MCF7DX; conditions: MCF7DX subline; cited from earlier work
[5] = test system: ER− tumors; conditions: clinical specimens; cited from earlier work
[6] = test system: HT29 human colon carcinoma; assay: MTT cell growth inhibition, HT29; format: cell-based; conditions: Homo sapiens, HT-29, 5-10 days
Description: (§1) The following experiment confirms that the elsamitrucin salts made in accordance with the teachings of the present disclosure retain their in vitro anti-neoplastic activity when compared to elsamitrucin base. Elsamitrucin and elsamitrucin tosylate were tested in vitro using: B16F10 (murine […]), HCT 116 (human colon), HT29 (human colon) and SK-MES-1 (human non-small cell lung carcinoma). Cell growth inhibition was evaluated in 96-well micro-culture plates with a semi-automated MTT (3-(4,5-dimethylthiazol-2-yl)-2,5-diphenyltetrazolium bromide) assay. […]
(§2) Cell culture plates seeded with test cells and various concentrations of elsamitrucin solutions were placed in a humidified incubator at 37° C., with CO2 and 95% air for 5-10 days. […] Absorbance was monitored at a wavelength of 595 nm, and at a reference wavelength of 650 nm, using a TECAN® GENios mocroplate reader. In all experiments, absorbance data was acquired for each agent at two overlapping concentration ranges. […]
(§3) The results of each test were stored and imported into PRISM® 3.03 for graphical analysis and determination of IC50 values. All results were graphed as a percentage of controlled absorbance versus the drug concentration. […]

[7] = test system: HCT 116 human colon carcinoma; assay: MTT cell growth inhibition, HCT 116; format: cell-based; conditions: Homo sapiens; HCT 116, MTT, 5-10 days
Description: as §1, §2, §3

[8] = test system: B16F10 murine melanoma cells; assay: MTT cell growth inhibition, B16F10; format: cell-based; conditions: Mus musculus, B16-F10, 5-10 days
Description: as §1, §2, §3

[9] = test system: SK-MES-1 human non-small cell lung carcinoma; assay: MTT cell growth inhibition, SK-MES-1; format: cell-based; conditions: Homo sapiens; SK-MES-1, MTT, 5-10 days
Description: as §1, §2, §3

[10] = test system: MCF7; conditions: ER+ MCF7 cell line; cited from earlier work
[11] = test system: MDA-MB-231; conditions: ER− MDA-MB-231 cell line; cited from earlier work

CO[C@H]1[C@@H](O)[C@@H](C)OC(O[C@H]2[C@H](Oc3cccc4c(O)c5c(=O)oc6ccc(C)c7c(=O)oc(c34)c5c67)O[C@H](C)[C@H](O)[C@]2(C)O)[C@@H]1N (stereo partly drawn) [Elsamitrucin, benzo(h)(1)benzopyrano(5,4,3-cde)(1)ebnzopyran-5,12-dione,10((2-O-(2-amino-2,6-dideoxy-3-O-methyl-alpha-D-galactopyranosyl)-6-deoxy-3-C-methyl-beta-D-galactopyranosyl)oxy)-6-hydroxy-1-methyl]
Area Percent of HPLC peak ([1]; 10 mg/mL ELSA RTU Formulation 2, inverted, 5° C., Day 7): 97.89 Area Percent
Area Percent of HPLC peak ([1]; 10 mg/mL ELSA RTU Formulation 2, inverted, 5° C., Day 14): 97.70 Area Percent
Area Percent of HPLC peak ([1]; 10 mg/mL ELSA RTU Formulation 2, inverted, 5° C., Day 28): 98.41 Area Percent
Area Percent of HPLC peak ([1]; 10 mg/mL ELSA RTU Formulation 2, inverted, 5° C., Day 64): 97.54 Area Percent
Area Percent of HPLC peak ([1]; 10 mg/mL ELSA RTU Formulation 2, inverted, 5° C., Day 84): 98.15 Area Percent
Area Percent of HPLC peak ([1]; 10 mg/mL ELSA RTU Formulation 2, inverted, 5° C., Initial): 97.63 Area Percent
Area Percent of HPLC peak ([1]; 10 mg/mL ELSA RTU Formulation 2, inverted, 25° C., Day 7): 97.71 Area Percent
Area Percent of HPLC peak ([1]; 10 mg/mL ELSA RTU Formulation 2, inverted, 25° C., Day 14): 97.73 Area Percent
Area Percent of HPLC peak ([1]; 10 mg/mL ELSA RTU Formulation 2, inverted, 25° C., Day 28): 98.37 Area Percent
Area Percent of HPLC peak ([1]; 10 mg/mL ELSA RTU Formulation 2, inverted, 25° C., Day 64): 97.42 Area Percent
Area Percent of HPLC peak ([1]; 10 mg/mL ELSA RTU Formulation 2, inverted, 25° C., Day 84): 97.28 Area Percent
Area Percent of HPLC peak ([1]; 10 mg/mL ELSA RTU Formulation 2, inverted, 25° C., Initial): 97.63 Area Percent
Area Percent of HPLC peak ([1]; 10 mg/mL ELSA RTU Formulation 2, inverted, 40° C., Day 7): 97.75 Area Percent
Area Percent of HPLC peak ([1]; 10 mg/mL ELSA RTU Formulation 2, inverted, 40° C., Day 14): 97.64 Area Percent
Area Percent of HPLC peak ([1]; 10 mg/mL ELSA RTU Formulation 2, inverted, 40° C., Day 28): 97.70 Area Percent
Area Percent of HPLC peak ([1]; 10 mg/mL ELSA RTU Formulation 2, inverted, 40° C., Day 38): 98.04 Area Percent
Area Percent of HPLC peak ([1]; 10 mg/mL ELSA RTU Formulation 2, inverted, 40° C., Day 64): 97.04 Area Percent
Area Percent of HPLC peak ([1]; 10 mg/mL ELSA RTU Formulation 2, inverted, 40° C., Day 77): 96.84 Area Percent
Area Percent of HPLC peak ([1]; 10 mg/mL ELSA RTU Formulation 2, inverted, 40° C., Day 84): 96.64 Area Percent
Area Percent of HPLC peak ([1]; 10 mg/mL ELSA RTU Formulation 2, inverted, 40° C., Initial): 97.63 Area Percent
Area Percent of HPLC peak ([1]; 10 mg/mL ELSA RTU Formulation 2, inverted, 60° C., Day 2): 97.73 Area Percent
Area Percent of HPLC peak ([1]; 10 mg/mL ELSA RTU Formulation 2, inverted, 60° C., Day 7): 96.86 Area Percent
Area Percent of HPLC peak ([1]; 10 mg/mL ELSA RTU Formulation 2, inverted, 60° C., Day 10): 96.82 Area Percent
Area Percent of HPLC peak ([1]; 10 mg/mL ELSA RTU Formulation 2, inverted, 60° C., Day 14): 96.03 Area Percent
Area Percent of HPLC peak ([1]; 10 mg/mL ELSA RTU Formulation 2, inverted, 60° C., Initial): 97.63 Area Percent
Area Percent of HPLC peak ([1]; 10 mg/mL ELSA RTU Formulation 2, upright, 5° C., Day 7): 97.86 Area Percent
Area Percent of HPLC peak ([1]; 10 mg/mL ELSA RTU Formulation 2, upright, 5° C., Day 14): 97.63 Area Percent
Area Percent of HPLC peak ([1]; 10 mg/mL ELSA RTU Formulation 2, upright, 5° C., Day 28): 97.63 Area Percent
Area Percent of HPLC peak ([1]; 10 mg/mL ELSA RTU Formulation 2, upright, 5° C., Day 64): 97.39 Area Percent
Area Percent of HPLC peak ([1]; 10 mg/mL ELSA RTU Formulation 2, upright, 5° C., Day 84): 97.33 Area Percent
Area Percent of HPLC peak ([1]; 10 mg/mL ELSA RTU Formulation 2, upright, 5° C., Initial): 97.63 Area Percent
Area Percent of HPLC peak ([1]; 10 mg/mL ELSA RTU Formulation 2, upright, 40° C., Day 7): 97.77 Area Percent
Area Percent of HPLC peak ([1]; 10 mg/mL ELSA RTU Formulation 2, upright, 40° C., Day 14): 97.71 Area Percent
Area Percent of HPLC peak ([1]; 10 mg/mL ELSA RTU Formulation 2, upright, 40° C., Day 28): 97.62 Area Percent
Area Percent of HPLC peak ([1]; 10 mg/mL ELSA RTU Formulation 2, upright, 40° C., Day 38): 97.76 Area Percent
Area Percent of HPLC peak ([1]; 10 mg/mL ELSA RTU Formulation 2, upright, 40° C., Day 64): 96.86 Area Percent
Area Percent of HPLC peak ([1]; 10 mg/mL ELSA RTU Formulation 2, upright, 40° C., Day 77): 96.80 Area Percent
Area Percent of HPLC peak ([1]; 10 mg/mL ELSA RTU Formulation 2, upright, 40° C., Day 84): 97.31 Area Percent
Area Percent of HPLC peak ([1]; 10 mg/mL ELSA RTU Formulation 2, upright, 40° C., Initial): 97.63 Area Percent
Area Percent of HPLC peak ([1]; 10 mg/mL ELSA RTU Formulation 12, upright, 25° C., Day 7): 97.86 Area Percent
Area Percent of HPLC peak ([1]; 10 mg/mL ELSA RTU Formulation 12, upright, 25° C., Day 14): 97.67 Area Percent
Area Percent of HPLC peak ([1]; 10 mg/mL ELSA RTU Formulation 12, upright, 25° C., Day 28): 98.32 Area Percent
Area Percent of HPLC peak ([1]; 10 mg/mL ELSA RTU Formulation 12, upright, 25° C., Day 64): 97.68 Area Percent
Area Percent of HPLC peak ([1]; 10 mg/mL ELSA RTU Formulation 12, upright, 25° C., Day 84): 98.08 Area Percent
Area Percent of HPLC peak ([1]; 10 mg/mL ELSA RTU Formulation 12, upright, 25° C., Initial): 97.63 Area Percent
Area Percent of HPLC peak ([1]; 10 mg/mL ELSA RTU Formulation 12, upright, 60° C., Day 2): 97.83 Area Percent
Area Percent of HPLC peak ([1]; 10 mg/mL ELSA RTU Formulation 12, upright, 60° C., Day 7): 96.93 Area Percent
Area Percent of HPLC peak ([1]; 10 mg/mL ELSA RTU Formulation 12, upright, 60° C., Day 10): 95.99 Area Percent
Area Percent of HPLC peak ([1]; 10 mg/mL ELSA RTU Formulation 12, upright, 60° C., Day 14): 95.79 Area Percent
Area Percent of HPLC peak ([1]; 10 mg/mL ELSA RTU Formulation 12, upright, 60° C., Initial): 97.63 Area Percent
elsamtrucin-associated toxicity [2]: relatively mild
minimal inhibiting concentrations [3]: 0.1 micrograms/ml
cross-resistance to DX [4]: cross-resistant
minimal inhibiting concentrations [5]: 3.5 micrograms/ml
IC50 [6]: 95 nM
IC50 [7]: 74 nM
IC50 [8]: 24 nM
IC50 [9]: 42 nM
IC50 antiproliferative effect [10]: 0.25 micrograms/ml
IC50 antiproliferative effect [11]: 0.21 micrograms/ml

Reference: US20110251143A1, “STABLE ELSAMITRUCIN SALT FORMULATIONS” (Spectrum Pharmaceuticals, Inc., priority 2007, published 2011)
